# Structures can show the parent of a compound that is named as a salt.
# Biological target: T1, human CaMKIIδ (Homo sapiens, UniProt Q13557)
# T1 construct: Full-length, glutathione-S-transferase(GST)-tagged, human CaMKIIδ was purchased from Carna Biosciences; purchased Carna Biosciences (CaMKIIδ); Wako Pure Chemical Industries (calmodulin) 02-111
# Experiment: In vitro CaMKII inhibitory activity (binding assay, TR-FRET)
# Details: Table 1, GST-tagged human CaMKIIδ, activity ranks
# Procedure: Evaluation of In Vitro CaMKII Inhibitory Activity (Binding Assay)
# In vitro CaMKIIδ inhibitory activity was evaluated by a binding assay.
# Full-length, glutathione-S-transferase(GST)-tagged, human CaMKIIδ was purchased from Carna Biosciences (product #02-111, Kobe, Japan). Full-length bovine calmodulin was purchased from Wako Pure Chemical Industries (Osaka, Japan). Terbium-labeled anti-GST antibody (Tb-anti-GST Ab) was purchased from Life Technologies (Carlsbad, Calif., USA). Boron-dipyrromethene (BODIPY)-labeled probe ligand was synthesized as described below.
# Time-Resolved Fluorescence Resonance Energy Transfer (TR-FRET) Assay
# All assays were conducted using 384-well, white, flat-bottomed plates (product #784075, Greiner Bio-One, Frickenhausen, Germany) in kinase assay buffer, which consists of 50 mM HEPES pH 7.6, 10 mM MgCl2, 1 mM EGTA, 0.01% Brig-35, 0.1 mM DTT). The fluorescent probe ligand was added at a final concentration of 300 nM to solutions containing 0.21 nM Tb-anti-GST Ab, 1 mM CaCl2, 10 μg/mL calmodulin, and 0.5 nM GST-tagged CaMKIIδ. After shaded incubation of the protein-probe mixture on ice for 30 min, the premix was dispensed in the assay plate including test inhibitors with 4 fold dilution series of eight concentrations. After 1 hr incubation at room temperature, TR-FRET signals were measured in duplicate using an EnVision microplate reader (Perkin Elmer, Waltham, Mass., USA). The solution in each well was excited with a laser (λ=340 nm) reflected by a dichroic mirror (D400/D505 (Perkin Elmer) through an excitation filter (UV (TRF) 340, (Perkin Elmer)), and fluorescence from Tb and BODIPY were detected through two emission filters (CFP 495 (Perkin Elmer) for Tb, Emission 520 (Perkin Elmer) for BODIPY).
# The percentage of inhibition of test compounds was calculated according to equation (1) Inhibition(%)=100×(μH−T)/(μH−μL) (1)
# Where T is the value of the wells containing test compounds and μH and μL are the mean values of the 0% and 100% inhibition control wells, respectively. The values of the 0 and 100% controls were the signals obtained in the absence and presence of 3 μM its parent compound, respectively. The half maximal inhibitory concentration (IC50) of test compounds was calculated by fitting the data with the logistic equation using XLfit (IDBS, Guildford, UK). The IC50 was classified according to the following activity ranks.
row,SMILES,IC50
1,"CCOCCOc1nn([C@H]2CC[C@H](N3CCOCC3)CC2)cc1Nc1ncc(-c2ccc(Cl)c(O[C@@H](C)Cn3cnnn3)c2)cn1 [Example 9, 5-(3-(((S)-1-(1H-tetrazol-1-yl)propan-2-yl)oxy)-4-chlorophenyl)-N-(3-(2-ethoxyethoxy)-1-((1r,4r)-4-morpholinocyclohexyl)-1H-pyrazol-4-yl)pyrimidin-2-amine]",< 10 nM
2,"C[C@@H](Cn1cnnn1)Oc1cc(-c2cnc(Nc3cn([C@H]4CC[C@H](N5CCOCC5)CC4)nc3OCCCOCC(F)F)nc2)ccc1C#N [Example 46, 2-(((S)-1-(1H-tetrazol-1-yl)propan-2-yl)oxy)-4-(2-((3-(3-(2,2-difluoroethoxy)propoxy)-1-((1r,4r)-4-morpholinocyclohexyl)-1H-pyrazol-4-yl)amino)pyrimidin-5-yl)benzonitrile]",< 10 nM
3,"CCOCCCOc1nn([C@H]2CC[C@H](N3CCOCC3)CC2)cc1Nc1ncc(-c2ccc(Cl)c(O[C@@H](C)Cn3cnnn3)c2)cn1 [Example 34, 5-(3-(((S)-1-(1H-tetrazol-1-yl)propan-2-yl)oxy)-4-chlorophenyl)-N-(3-(3-ethoxypropoxy)-1-((1r,4r)-4-morpholinocyclohexyl)-1H-pyrazol-4-yl)pyrimidin-2-amine]",< 10 nM
4,"COCCCCOc1nn([C@H]2CC[C@H](N3CCOCC3)CC2)cc1Nc1ncc(-c2ccc(Cl)c(O[C@@H](C)Cn3cnnn3)c2)cn1 [Example 151, 5-(3-(((S)-1-(1H-tetrazol-1-yl)propan-2-yl)oxy)-4-chlorophenyl)-N-(3-(4-methoxybutoxy)-1-((1r,4r)-4-morpholinocyclohexyl)-1H-pyrazol-4-yl)pyrimidin-2-amine]",< 10 nM
5,"C[C@@H](Cn1cnnn1)Oc1cc(-c2cnc(Nc3cn([C@H]4CC[C@H](N5[C@@H]6CC[C@H]5COC6)CC4)nc3OCCCS(C)(=O)=O)nc2)ccc1Cl [Example 142, 5-(3-(((S)-1-(1H-tetrazol-1-yl)propan-2-yl)oxy)-4-chlorophenyl)-N-(1-((1r,4r)-4-((1R,5S)-3-oxa-8-azabicyclo[3.2.1]octan-8-yl)cyclohexyl)-3-(3-(methylsulfonyl)propoxy)-1H-pyrazol-4-yl)pyrimidin-2-amine]",< 10 nM
6,"COCCOCCOc1nn([C@H]2CC[C@H](N3CCOCC3)CC2)cc1Nc1ncc(-c2ccc(C#N)c(O[C@@H](C)Cn3cnnn3)c2)cn1 [Example 48, 2-(((S)-1-(1H-tetrazol-1-yl)propan-2-yl)oxy)-4-(2-((3-(2-(2-methoxyethoxy)ethoxy)-1-((1r,4r)-4-morpholinocyclohexyl)-1H-pyrazol-4-yl)amino)pyrimidin-5-yl)benzonitrile hydrochloride]",< 10 nM
7,"C[C@@H](Cn1cnnn1)Oc1cc(-c2cnc(Nc3cn([C@H]4CC[C@H](N5[C@@H]6CC[C@H]5COC6)CC4)nc3OCCO)nc2)ccc1Cl [Example 243, 2-((4-((5-(3-(((S)-1-(1H-tetrazol-1-yl)propan-2-yl)oxy)-4-chlorophenyl)pyrimidin-2-yl)amino)-1-((1r,4r)-4-((1R,5S)-3-oxa-8-azabicyclo[3.2.1]octan-8-yl)cyclohexyl)-1H-pyrazol-3-yl)oxy)ethan-1-ol]",< 10 nM
8,"C[C@@H](Cn1cnnn1)Oc1cc(-c2cnc(Nc3cn([C@H]4CC[C@H](N5CCOCC5)CC4)nc3OCc3ccccn3)nc2)ccc1Cl [Example 130, 5-(3-(((S)-1-(1H-tetrazol-1-yl)propan-2-yl)oxy)-4-chlorophenyl)-N-(1-((1r,4r)-4-morpholinocyclohexyl)-3-(pyridin-2-ylmethoxy)-1H-pyrazol-4-yl)pyrimidin-2-amine]",< 10 nM
9,"CC(C)OCCOc1nn([C@H]2CC[C@H](N3CCOCC3)CC2)cc1Nc1ncc(-c2ccc(C#N)c(O[C@@H](C)Cn3cncn3)c2)cn1 [Example 16, 2-(((S)-1-(1H-1,2,4-triazol-1-yl)propan-2-yl)oxy)-4-(2-((3-(2-isopropoxyethoxy)-1-((1r,4r)-4-morpholinocyclohexyl)-1H-pyrazol-4-yl)amino)pyrimidin-5-yl)benzonitrile]",< 10 nM

# Same assay, conditions: Table 4, GST-tagged human CaMKIIδ, activity ranks
row,SMILES,IC50
1,"C[C@@H](Cn1cnnn1)Oc1cc(-c2cnc(Nc3cn([C@H]4CC[C@H](N5CCOCC5)CC4)nc3OCC3CCOC3)nc2)ccc1Cl (stereo partly drawn) [Example 498, 5-(3-(((S)-1-(1H-tetrazol-1-yl)propan-2-yl)oxy)-4-chlorophenyl)-N-(1-((1r,4r)-4-morpholinocyclohexyl)-3-((tetrahydrofuran-3-yl)methoxy)-1H-pyrazol-4-yl)pyrimidin-2-amine]",< 10 nM
2,"C[C@@H](Cn1cnnn1)Oc1cc(-c2cnc(Nc3cn([C@H]4CC[C@H](N5CCOCC5)CC4)nc3OCc3cncs3)nc2)ccc1Cl [Example 501, 5-(3-(((S)-1-(1H-tetrazol-1-yl)propan-2-yl)oxy)-4-chlorophenyl)-N-(1-((1r,4r)-4-morpholinocyclohexyl)-3-(thiazol-5-ylmethoxy)-1H-pyrazol-4-yl)pyrimidin-2-amine]",< 10 nM
3,"C[C@@H](Cn1cnnn1)Oc1cc(-c2cnc(Nc3cn([C@H]4CC[C@H](N5CCOCC5)CC4)nc3OCCC(C)(C)O)nc2)ccc1Cl [Example 500, 4-((4-((5-(3-(((S)-1-(1H-tetrazol-1-yl)propan-2-yl)oxy)-4-chlorophenyl)pyrimidin-2-yl)amino)-1-((1r,4r)-4-morpholinocyclohexyl)-1H-pyrazol-3-yl)oxy)-2-methylbutan-2-ol]",< 10 nM
4,"COC(C)(C)CCOc1nn([C@H]2CC[C@H](N3CCOCC3)CC2)cc1Nc1ncc(-c2ccc(C#N)c(O[C@@H](C)Cn3cnnn3)c2)cn1 [Example 496, 2-(((S)-1-(1H-tetrazol-1-yl)propan-2-yl)oxy)-4-(2-((3-(3-methoxy-3-methylbutoxy)-1-((1r,4r)-4-morpholinocyclohexyl)-1H-pyrazol-4-yl)amino)pyrimidin-5-yl)benzonitrile]",< 10 nM
5,"C[C@@H]1CN([C@H]2CC[C@H](n3cc(Nc4ncc(-c5ccc(Cl)c(O[C@@H](C)Cn6cnnn6)c5)cn4)c(OCCCOCCO)n3)CC2)C[C@H](C)O1 [Example 474, 2-(3-((4-((5-(3-(((S)-1-(1H-tetrazol-1-yl)propan-2-yl)oxy)-4-chlorophenyl)pyrimidin-2-yl)amino)-1-((1r,4r)-4-((2S,6R)-2,6-dimethylmorpholino)cyclohexyl)-1H-pyrazol-3-yl)oxy)propoxy)ethan-1-ol]",< 10 nM
6,"C[C@@H](Cn1cnnn1)Oc1cc(-c2cnc(Nc3cn([C@H]4CC[C@H](N5CCOCC5)CC4)nc3OCCn3cccn3)nc2)ccc1Cl [Example 513, N-(3-(2-(1H-pyrazol-1-yl)ethoxy)-1-((1r,4r)-4-morpholinocyclohexyl)-1H-pyrazol-4-yl)-5-(3-(((S)-1-(1H-tetrazol-1-yl)propan-2-yl)oxy)-4-chlorophenyl)pyrimidin-2-amine]",< 10 nM
7,"C[C@@H](Cn1cnnn1)Oc1cc(-c2cnc(Nc3cn([C@H]4CC[C@H](N5CCOCC5)CC4)nc3OCC3COC3)nc2)ccc1C#N [Example 492, 2-(((S)-1-(1H-tetrazol-1-yl)propan-2-yl)oxy)-4-(2-((1-((1r,4r)-4-morpholinocyclohexyl)-3-(oxetan-3-ylmethoxy)-1H-pyrazol-4-yl)amino)pyrimidin-5-yl)benzonitrile]",< 10 nM
8,"C[C@@H](Cn1cnnn1)Oc1cc(-c2cnc(Nc3cn(C4CCC(N5CCOCC5)CC4)nc3OCc3ccnn3C)nc2)ccc1Cl (stereo partly drawn) [Example 505, 5-(3-(((S)-1-(1H-tetrazol-1-yl)propan-2-yl)oxy)-4-chlorophenyl)-N-(3-((1-methyl-1H-pyrazol-5-yl)methoxy)-1-((1r,4r)-4-morpholinocyclohexyl)-1H-pyrazol-4-yl)pyrimidin-2-amine]",< 10 nM
9,"C[C@@H](Cn1cnnn1)Oc1cc(-c2cnc(Nc3cn([C@H]4CC[C@H](N5CCOCC5)CC4)nc3OCCCn3cncn3)nc2)ccc1Cl [Example 508, N-(3-(3-(1H-1,2,4-triazol-1-yl)propoxy)-1-((1r,4r)-4-morpholinocyclohexyl)-1H-pyrazol-4-yl)-5-(3-(((S)-1-(1H-tetrazol-1-yl)propan-2-yl)oxy)-4-chlorophenyl)pyrimidin-2-amine]",< 10 nM
10,"COCCOCCCOc1nn([C@H]2CC[C@H](N3CCOCC3)CC2)cc1Nc1ncc(-c2ccc(C#N)c(O[C@@H](C)Cn3cnnn3)c2)cn1 [Example 490, 2-(((S)-1-(1H-tetrazol-1-yl)propan-2-yl)oxy)-4-(2-((3-(3-(2-methoxyethoxy)propoxy)-1-((1r,4r)-4-morpholinocyclohexyl)-1H-pyrazol-4-yl)amino)pyrimidin-5-yl)benzonitrile]",< 10 nM

# From patent US11130752B2, “Aminopyrimidine compound” (Cardurion Pharmaceuticals, LLC, priority 2018, dated 2021)
